Reference: PMC12596758 (Clinical pharmacology and therapeutics, 2025)
pIC50: −log10 of the molar value. Like-named read-outs stand apart in the source and are kept apart here.

How the values were obtained:
[1] = test system: OCT1; conditions: potent OCT1 inhibitor new chemical entity vs placebo, healthy adults; cited from earlier work
[2] = for relative plasma concentrations between study arms: targeted analysis, baseline vs cimetidine exposure
[3] = pyrimethamine 75 mg, healthy adults; cited from earlier work
[4] = clinical; conditions: both, human, po; for Cmax: plasma
[5] = test system: Oct1; conditions: Oct1 knockout mice vs wild-type mice, single oral dose of metformin; cited from earlier work
[6] = excreted unchanged into urine; cited from earlier work
[7] = cited from earlier work
[8] = rats, cimetidine 100 mg/kg intraperitoneally; cited from earlier work
[9] = test system: OCT2; conditions: read-out: IC50 for OCT2; cited from earlier work
[10] = test system: nicotinamide N-methyltransferase, NNMT; conditions: cited from earlier work
[11] = test system: aldehyde oxidase, AO; conditions: cited from earlier work
[12] = cimetidine 400 mg vs baseline, healthy adults
[13] = decrease with cimetidine 400 mg vs baseline, healthy adults
[14] = cimetidine 400 mg vs baseline, healthy adults, listed as NMA
[15] = increase with cimetidine 400 mg vs baseline, healthy adults

CC(C)C(=O)O[C@H](CC(=O)[O-])C[N+](C)(C)C [Isobutyryl-L-carnitine, isobutyryl-L-carnitine]
decrease in plasma exposure [1]: 35% | AUC(0–4 h), effect of cimetidine exposure vs baseline (in words) [2, 12]: did not differ | AUC(0–24 h), effect of cimetidine exposure vs baseline (in words) [2, 12]: did not differ | Cmax, effect of cimetidine exposure vs baseline (in words) [2, 12]: did not differ | AUC(0–24 h) %Change (cimetidine exposure/baseline), decrease (↓) [2, 13]: 4% (↓) | Cmax %Change (cimetidine exposure/baseline), decrease (↓) [2, 13]: 6% (↓)

C[N+](C)(C)CC(O)CC(=O)[O-] (stereo not drawn) [carnitine]
relative plasma concentrations between study arms [2]: no significant differences

N[C@@H](Cc1c[nH]c2ccccc12)C(=O)O [tryptophan]
relative plasma concentrations between study arms [2]: no significant differences

C[n+]1cccc(C(=O)O)c1 [N1-methyl nicotinic acid]
relative plasma concentrations between study arms [2]: no significant differences

CC(=O)OCC[N+](C)(C)C [acetylcholine]
relative plasma concentrations between study arms [2]: no significant differences

C[N+](C)(C)CCO [choline]
relative plasma concentrations between study arms [2]: no significant differences

C[N+](C)(C)CC(=O)[O-] [glycine betaine]
relative plasma concentrations between study arms [2]: no significant differences

Cn1cnc2c(ncn2[C@@H]2O[C@H](CO)[C@@H](O)[C@H]2O)c1=N [N1-Methyladenosine, N1-methyladenosine]
reduction in CLr [3]: 47% | CL renal ([4]; plasma and urine): 68.3 mL/min | Cmax [4]: 2.6 ng/mL | Cmax ([4]; 50 mg): 2.6 ng/mL | AUC(0–4 h), effect of cimetidine exposure vs baseline (in words) [2, 12]: comparable | AUC(0–24 h), effect of cimetidine exposure vs baseline (in words) [2, 12]: comparable | Ae(0–4 h), effect of cimetidine exposure vs baseline (in words) [2, 12]: comparable | Ae(0–24 h), effect of cimetidine exposure vs baseline (in words) [2, 12]: comparable | CLr,a, effect of cimetidine exposure vs baseline (in words) [2, 12]: No change | CLr,b, effect of cimetidine exposure vs baseline (in words) [2, 12]: comparable | Cmax, effect of cimetidine exposure vs baseline (in words) [2, 12]: No change | CLr,a, effect of cimetidine exposure vs baseline (in words) [2, 14]: comparable | Cmax, effect of cimetidine exposure vs baseline (in words) [2, 14]: comparable | AUC(0–4 h) %Change (cimetidine exposure/baseline), decrease (↓) [2, 13]: 5% (↓) | AUC(0–24 h) %Change (cimetidine exposure/baseline), decrease (↓) [2, 13]: 5% (↓) | Ae(0–24 h) %Change (cimetidine exposure/baseline), decrease (↓) [2, 13]: 4% (↓) | Ae(0–4 h) %Change (cimetidine exposure/baseline), increase (↑) [2, 15]: 44% (↑) | CLr,b %Change (cimetidine exposure/baseline), increase (↑) [2, 15]: 53% (↑)

CN(C)C(=N)N=C(N)N [Metformin]
reduction of hepatic metformin concentration [5]: 3.4 fold | share of urinary excretion through glomerular filtration [6]: 25% | share of urinary excretion through renal secretion [6]: 75% | decrease in CLr ([7]; oral metformin 250–500 mg with cimetidine, healthy adults): 27–45% | reduction in metformin CLr ([7]; similar cimetidine dosing regimen (400 mg), not statistically significant, ref 26 (Koishikawa et al.)): 15% | increase in metformin blood concentrations [8]: 3.2 fold | reduction in CLr [8]: 73% | Cmax [4]: 168 ng/mL | Cmax ([4]; 50 mg): 124 ng/mL | higher AUC(0–24 h), group TT compared to heterozygous group TC ([2]; MATE1 c.−66T>C (rs2252281), baseline arm, p = 0.042): 1.42 fold | CLr,b %Change (cimetidine exposure/baseline), decrease (↓) [2, 13]: 17% (↓) | CLr,a %Change (cimetidine exposure/baseline), decrease (↓) ([2]; decrease with cimetidine 400 mg vs baseline, healthy adults, CLr based on 0–24 h): 8% (↓) | Renal OCT2 alone (AUC(0–24 h)) % Change Observed data, increase (↑) ([2]; from the observed CLr decrease): 8% (↑) | AUC(0–24 h) %Change (cimetidine exposure/baseline), increase (↑) [2, 15]: 24% (↑) | Ae(0–4 h) %Change (cimetidine exposure/baseline), increase (↑) [2, 15]: 4% (↑) | AUC(0–24 h) %Change (cimetidine exposure/baseline), increase (↑) ([2]; increase with cimetidine 400 mg vs baseline, healthy adults, listed as metformin): 24% | increase in Cmax with cimetidine treatment ([2]; individuals homozygous for OCT1 c.480G>C (p.Leu160Phe, rs683369), p = 0.006): 48% | increase in AUC(0–24 h) with cimetidine treatment ([2]; individuals homozygous for OCT1 c.480G>C (p.Leu160Phe, rs683369), p = 0.025): 33% | increase in AUC(0–24 h) with cimetidine ([2]; participants homozygous for OCT2 c.1506C>T (p.Val502=, rs316003), p = 0.022): 27% | reduction in CLr,a with cimetidine ([2]; participants homozygous for OCT2 c.518+32G>C (rs2774230) or c.1506C>T (rs316003)): 9% | increase in AUC(0–24 h) with cimetidine ([2]; participants homozygous for OCT2 c.518+32G>C (rs2774230), p = 0.013): 35%

CN/C(=N/CCSCc1nc[nH]c1C)NC#N [Cimetidine, cimetidine]
pIC50 [9]: 3.68 to 4.63 | inhibition of NNMT activity [10]: does not inhibit | inhibition of AO activity [11]: does not inhibit
